Experimental findings from ChEMBL document CHEMBL1201862, “PubChem BioAssay data set” (2004) are described below.

The source made the active and inactive calls.

Assay [1] can be described thus: viability of PTEN-deleted HCT116 cells – cell-based, HCT116 PTEN knockout, dose response (AID 1047).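 Also: HCT116 colon tumor cells with PTEN knocked out; cells exposed to compound for 60 hours before readout; potency for loss of cell viability measured by luminescence.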 The format is functional.
Assay [2] can be described thus: viability of HCT116 lacking mutant beta-catenin – cell-based, human colon tumor, dose response (AID 1045).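 Also: HCT116 colon tumor cells with beta catenin knocked out; cells exposed to compound for 60 hours.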 The format is functional.
Assay [3] in a line: THP-1 cell cytotoxicity, dose response, cytotoxicity control for non-replicating M. tuberculosis project (AID 489025). Format: functional.
A short description of assay [4]: HepG2 cell cytotoxicity, dose response, cytotoxicity control for non-replicating M. tuberculosis project (AID 489018). Format: functional. The note with it: Mycobacterium tuberculosis.
Assay [5] concerns the target T1, Caspase-3 (Homo sapiens, UniProt P42574).
T1 sequence (P42574 whole entry): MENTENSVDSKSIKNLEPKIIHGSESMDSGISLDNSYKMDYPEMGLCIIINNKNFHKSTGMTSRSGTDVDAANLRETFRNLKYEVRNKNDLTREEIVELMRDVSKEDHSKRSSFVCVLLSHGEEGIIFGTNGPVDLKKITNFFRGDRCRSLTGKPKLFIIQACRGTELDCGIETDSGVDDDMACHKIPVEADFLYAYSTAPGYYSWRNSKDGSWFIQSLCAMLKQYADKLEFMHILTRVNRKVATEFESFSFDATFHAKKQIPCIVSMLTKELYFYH
Format: functional.

The nature of assay [6]: Vero E6 cell cytotoxicity, dose response, cytotoxicity control for non-replicating M. tuberculosis project, secondary assay (AID 492998). Format: functional, VeroE6. The note with it: Vero C1008.
Assay [7] addresses T2, Sentrin-specific protease 7 (Homo sapiens, UniProt Q9BQF6).
T2 sequence (Q9BQF6 whole entry): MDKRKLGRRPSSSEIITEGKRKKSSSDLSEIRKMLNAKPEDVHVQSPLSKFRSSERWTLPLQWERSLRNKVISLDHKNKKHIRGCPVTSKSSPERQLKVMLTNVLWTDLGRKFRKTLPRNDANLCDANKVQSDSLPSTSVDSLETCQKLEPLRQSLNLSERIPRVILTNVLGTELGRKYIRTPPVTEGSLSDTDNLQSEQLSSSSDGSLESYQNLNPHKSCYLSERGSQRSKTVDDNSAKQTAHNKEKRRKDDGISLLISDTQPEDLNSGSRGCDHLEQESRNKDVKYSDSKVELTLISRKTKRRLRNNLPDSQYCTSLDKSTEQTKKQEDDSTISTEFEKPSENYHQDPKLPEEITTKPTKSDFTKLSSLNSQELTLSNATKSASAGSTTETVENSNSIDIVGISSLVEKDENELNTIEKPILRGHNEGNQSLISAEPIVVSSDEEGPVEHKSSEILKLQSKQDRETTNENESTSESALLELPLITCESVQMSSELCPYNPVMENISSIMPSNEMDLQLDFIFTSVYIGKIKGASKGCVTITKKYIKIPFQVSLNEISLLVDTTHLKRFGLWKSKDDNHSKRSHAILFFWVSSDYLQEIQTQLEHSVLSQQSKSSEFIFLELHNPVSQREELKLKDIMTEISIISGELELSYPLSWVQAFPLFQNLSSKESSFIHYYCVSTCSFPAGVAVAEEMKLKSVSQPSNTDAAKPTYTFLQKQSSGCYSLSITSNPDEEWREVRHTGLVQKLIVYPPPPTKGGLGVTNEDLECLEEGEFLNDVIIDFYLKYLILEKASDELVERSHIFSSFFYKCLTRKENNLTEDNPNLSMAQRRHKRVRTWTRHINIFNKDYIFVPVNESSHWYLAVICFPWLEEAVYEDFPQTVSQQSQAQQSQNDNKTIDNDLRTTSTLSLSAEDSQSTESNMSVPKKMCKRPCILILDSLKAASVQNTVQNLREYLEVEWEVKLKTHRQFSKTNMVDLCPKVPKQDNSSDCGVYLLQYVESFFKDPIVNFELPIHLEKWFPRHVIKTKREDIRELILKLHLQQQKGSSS
The format is functional.

Assay [8] concerns the target T3, Sentrin-specific protease 6 (Homo sapiens, UniProt Q9GZR1).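 Also: Luminescence-based dose-response confirmatory assay of SENP6 inhibition, following up an ultra-high-throughput screen.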
T3 sequence (Q9GZR1 whole entry): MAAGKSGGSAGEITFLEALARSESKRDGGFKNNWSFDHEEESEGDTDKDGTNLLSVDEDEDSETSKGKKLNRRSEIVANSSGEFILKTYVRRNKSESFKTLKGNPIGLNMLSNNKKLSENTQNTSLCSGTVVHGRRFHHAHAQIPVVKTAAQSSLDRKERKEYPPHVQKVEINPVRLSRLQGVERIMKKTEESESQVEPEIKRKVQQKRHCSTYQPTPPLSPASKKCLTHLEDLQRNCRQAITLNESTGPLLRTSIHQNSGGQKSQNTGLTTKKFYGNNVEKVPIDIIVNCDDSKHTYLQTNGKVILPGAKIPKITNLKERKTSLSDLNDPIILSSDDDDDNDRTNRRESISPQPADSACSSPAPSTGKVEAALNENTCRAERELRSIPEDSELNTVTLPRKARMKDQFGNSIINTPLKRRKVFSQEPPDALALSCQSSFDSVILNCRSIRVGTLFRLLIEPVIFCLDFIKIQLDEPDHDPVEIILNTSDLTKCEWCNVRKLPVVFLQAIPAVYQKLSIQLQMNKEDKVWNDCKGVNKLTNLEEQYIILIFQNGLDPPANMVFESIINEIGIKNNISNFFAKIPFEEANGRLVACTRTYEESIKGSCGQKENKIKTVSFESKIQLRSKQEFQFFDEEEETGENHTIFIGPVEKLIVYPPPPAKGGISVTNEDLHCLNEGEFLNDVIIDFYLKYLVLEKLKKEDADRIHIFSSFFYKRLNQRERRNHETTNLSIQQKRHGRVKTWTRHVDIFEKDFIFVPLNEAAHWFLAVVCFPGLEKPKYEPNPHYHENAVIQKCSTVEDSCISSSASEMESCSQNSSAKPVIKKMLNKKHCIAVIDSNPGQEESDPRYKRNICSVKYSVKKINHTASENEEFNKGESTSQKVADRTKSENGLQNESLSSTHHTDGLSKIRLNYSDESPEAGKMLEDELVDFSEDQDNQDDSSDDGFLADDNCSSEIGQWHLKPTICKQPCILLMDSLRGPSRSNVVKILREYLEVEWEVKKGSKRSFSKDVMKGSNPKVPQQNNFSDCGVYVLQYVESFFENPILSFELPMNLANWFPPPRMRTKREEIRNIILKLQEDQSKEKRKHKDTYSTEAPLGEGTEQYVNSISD
Format: functional.

In assay [9] the target is T4, Sentrin-specific protease 8 (Homo sapiens, UniProt Q96LD8).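 Also: luminescence read-out of SENP8 inhibition, dose-response confirmation following an ultra-high-throughput screen.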
T4 sequence (Q96LD8 whole entry): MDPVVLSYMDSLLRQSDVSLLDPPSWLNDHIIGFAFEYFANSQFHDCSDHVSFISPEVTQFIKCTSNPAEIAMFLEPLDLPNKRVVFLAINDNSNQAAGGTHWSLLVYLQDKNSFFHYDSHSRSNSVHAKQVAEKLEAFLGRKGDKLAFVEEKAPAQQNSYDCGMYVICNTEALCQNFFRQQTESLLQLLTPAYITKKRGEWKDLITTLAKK
Format: functional.

For assay [10], the system named is INS1. Description: INS-1E survival protection against cytokine death – cell-based, luminescence, retest, dose response (AID 449756).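 Also: cell death triggered by IL-1 beta plus TNF-alpha plus IFN-gamma mixture; protective hits raise ATP signal compared with cytokine alone wells.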 Format: functional. The note with it: Rattus norvegicus.
Assay [11] has as its target Photoreceptor-specific nuclear receptor (Homo sapiens, UniProt Q9Y5X4). Format: functional, cell-based.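 Also: CHO-S cells with Gal4-NCOR and VP16-NR2E3 two-hybrid luciferase reporter.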
The nature of assay [12]: viability of uninfected HEp-2 cells – cell-based, HTS, cytotoxicity control for RSV inhibitor project, dose response (AID 2410). The format is functional. The note with it: human respiratory syncytial virus.
Assay [13] deals with T1, Caspase-3. Description: activation of caspase-3 zymogen – biochemical, absorbance, dose response (AID 489014).
For assay [14], the target named is Caspase-7 (Homo sapiens, UniProt P55210). Kind of assay: activation of caspase-7 zymogen – biochemical, absorbance, counter-screen for procaspase-3 activator project, dose response (AID 489013).
Assay [15] has as its target T5, Probable nicotinate-nucleotide adenylyltransferase (Staphylococcus aureus (strain N315), UniProt P65502). Format: functional, Staphylococcus aureus subsp. aureus N315.
Assay [16] has as its target T5, Probable nicotinate-nucleotide adenylyltransferase. Format: functional, Staphylococcus aureus subsp. aureus N315. The note with it: read-out: IC50_Mean.
The target in assay [17] is Beta-galactosidase (Escherichia coli, UniProt Q8VNN2). Description: detection-enzyme interference by beta-gal modulators – biochemical, E. coli enzyme, set 3, artefact control for CCR6 antagonist project, dose response (AID 504712). Format: functional.
In assay [18] the target is T6, Replicative DNA helicase DnaB (Mycobacterium tuberculosis, UniProt P9WMR3).
T6 sequence (P9WMR3 whole entry): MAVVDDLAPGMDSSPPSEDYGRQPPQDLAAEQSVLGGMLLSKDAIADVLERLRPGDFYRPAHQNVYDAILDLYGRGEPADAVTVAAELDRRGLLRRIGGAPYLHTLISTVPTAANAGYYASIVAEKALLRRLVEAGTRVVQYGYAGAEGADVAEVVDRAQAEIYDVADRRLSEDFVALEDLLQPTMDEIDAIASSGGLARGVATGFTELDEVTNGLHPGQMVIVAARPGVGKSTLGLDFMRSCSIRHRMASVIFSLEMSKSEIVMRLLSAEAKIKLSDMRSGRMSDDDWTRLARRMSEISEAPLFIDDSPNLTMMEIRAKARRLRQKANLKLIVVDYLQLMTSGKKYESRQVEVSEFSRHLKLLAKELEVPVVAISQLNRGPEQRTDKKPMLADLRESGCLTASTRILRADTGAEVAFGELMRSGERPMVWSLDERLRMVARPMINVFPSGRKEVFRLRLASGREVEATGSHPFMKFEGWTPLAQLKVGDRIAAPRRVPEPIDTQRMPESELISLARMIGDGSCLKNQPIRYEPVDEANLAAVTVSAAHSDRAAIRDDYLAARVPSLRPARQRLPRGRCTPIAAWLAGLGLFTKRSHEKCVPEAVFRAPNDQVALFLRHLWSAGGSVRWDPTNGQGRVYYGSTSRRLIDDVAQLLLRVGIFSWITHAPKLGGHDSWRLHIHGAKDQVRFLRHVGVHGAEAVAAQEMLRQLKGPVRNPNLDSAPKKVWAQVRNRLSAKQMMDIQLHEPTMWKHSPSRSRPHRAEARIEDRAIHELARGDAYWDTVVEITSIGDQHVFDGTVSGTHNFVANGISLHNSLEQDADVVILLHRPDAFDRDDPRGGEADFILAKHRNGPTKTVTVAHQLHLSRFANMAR
Description: DnaB intein splicing inhibitors, dose response, biochemical, cell-free fluorescence (AID 449749). Format: functional.

Assay [19] concerns the target T7, Protein RecA (Mycobacterium tuberculosis, UniProt P9WHJ3).
T7 sequence (P9WHJ3 whole entry): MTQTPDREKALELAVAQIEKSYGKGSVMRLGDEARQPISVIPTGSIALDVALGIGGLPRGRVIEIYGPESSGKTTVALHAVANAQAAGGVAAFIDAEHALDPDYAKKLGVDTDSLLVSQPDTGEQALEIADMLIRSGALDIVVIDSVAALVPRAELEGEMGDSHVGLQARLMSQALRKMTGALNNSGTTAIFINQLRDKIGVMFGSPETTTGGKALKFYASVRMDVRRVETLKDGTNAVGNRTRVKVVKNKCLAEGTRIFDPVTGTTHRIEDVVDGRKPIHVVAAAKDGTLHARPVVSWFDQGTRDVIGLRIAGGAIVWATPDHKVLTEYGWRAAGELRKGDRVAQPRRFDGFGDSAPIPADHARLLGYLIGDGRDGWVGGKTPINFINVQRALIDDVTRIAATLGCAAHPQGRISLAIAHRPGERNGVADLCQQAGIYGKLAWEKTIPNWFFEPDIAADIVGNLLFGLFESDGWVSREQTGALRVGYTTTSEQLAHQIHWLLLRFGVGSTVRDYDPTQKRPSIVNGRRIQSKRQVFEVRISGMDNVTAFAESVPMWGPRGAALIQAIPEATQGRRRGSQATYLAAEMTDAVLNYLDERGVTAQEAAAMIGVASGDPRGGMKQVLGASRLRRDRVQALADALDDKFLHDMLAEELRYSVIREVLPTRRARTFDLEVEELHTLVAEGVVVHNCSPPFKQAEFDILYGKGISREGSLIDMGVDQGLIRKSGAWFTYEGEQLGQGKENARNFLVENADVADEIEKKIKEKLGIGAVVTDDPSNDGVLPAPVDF
Kind of assay: Fluorescence Cell-Free Homogeneous Dose Retest to Identify Inhibitors of RecA-Intein Splicing Activity. [Related pubchem assays (depositor defined):AID2097, AID2223, AID489010, AID492950]. The format is functional.

The target of assay [20] is Voltage-dependent T-type calcium channel subunit alpha-1H (Homo sapiens, UniProt O95180). Description: human CACNA1H calcium influx blockade – cell-based, synthetic library set 1, calcium flux (AID 493022). The format is functional.
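For IC50 Mean in this document: confirmatory dose-response retesting of NadD inhibitor hits first found in an ultra-high-throughput screen.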

T5 sequence (P65502 whole entry): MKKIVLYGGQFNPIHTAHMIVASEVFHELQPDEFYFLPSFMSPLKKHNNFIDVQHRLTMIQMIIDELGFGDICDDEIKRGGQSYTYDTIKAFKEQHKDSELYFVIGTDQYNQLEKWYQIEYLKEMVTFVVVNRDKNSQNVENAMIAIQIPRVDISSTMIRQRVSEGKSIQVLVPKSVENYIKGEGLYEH
Beta-galactosidase, sequence (Q8VNN2 whole entry): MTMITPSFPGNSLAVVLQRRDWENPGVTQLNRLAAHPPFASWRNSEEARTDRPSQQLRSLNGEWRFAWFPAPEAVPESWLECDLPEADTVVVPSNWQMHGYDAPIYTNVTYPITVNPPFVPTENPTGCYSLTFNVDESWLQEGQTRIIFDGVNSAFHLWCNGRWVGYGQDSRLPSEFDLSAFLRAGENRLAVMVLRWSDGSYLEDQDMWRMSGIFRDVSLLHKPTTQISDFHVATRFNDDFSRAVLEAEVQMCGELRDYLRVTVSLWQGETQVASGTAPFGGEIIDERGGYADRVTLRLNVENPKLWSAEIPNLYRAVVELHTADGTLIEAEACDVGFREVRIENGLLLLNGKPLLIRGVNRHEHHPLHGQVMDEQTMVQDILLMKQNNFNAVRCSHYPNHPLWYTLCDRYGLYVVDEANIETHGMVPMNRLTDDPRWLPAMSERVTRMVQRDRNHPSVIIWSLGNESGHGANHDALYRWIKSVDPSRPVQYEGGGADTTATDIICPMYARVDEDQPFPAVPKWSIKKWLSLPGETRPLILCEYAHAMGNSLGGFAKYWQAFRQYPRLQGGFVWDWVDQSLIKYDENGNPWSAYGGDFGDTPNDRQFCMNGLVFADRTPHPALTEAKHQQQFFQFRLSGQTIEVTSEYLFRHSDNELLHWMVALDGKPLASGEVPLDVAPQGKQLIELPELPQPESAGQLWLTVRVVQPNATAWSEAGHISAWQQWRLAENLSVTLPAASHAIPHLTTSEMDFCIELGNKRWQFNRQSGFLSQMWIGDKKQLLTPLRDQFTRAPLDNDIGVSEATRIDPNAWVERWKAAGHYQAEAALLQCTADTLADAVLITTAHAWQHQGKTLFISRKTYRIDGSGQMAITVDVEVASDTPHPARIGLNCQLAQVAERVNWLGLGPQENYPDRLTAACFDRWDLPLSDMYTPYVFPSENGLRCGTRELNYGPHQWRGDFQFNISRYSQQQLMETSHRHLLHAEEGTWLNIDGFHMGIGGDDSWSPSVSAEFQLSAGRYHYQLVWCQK
Caspase-7, sequence (P55210 24-198 limits assumed): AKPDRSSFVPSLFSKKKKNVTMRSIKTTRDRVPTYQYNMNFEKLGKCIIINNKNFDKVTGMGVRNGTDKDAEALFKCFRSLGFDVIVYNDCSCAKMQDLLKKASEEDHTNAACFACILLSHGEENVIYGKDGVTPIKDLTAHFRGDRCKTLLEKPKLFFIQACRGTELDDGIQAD
Caspase-7, sequence (P55210 207-303 limits assumed): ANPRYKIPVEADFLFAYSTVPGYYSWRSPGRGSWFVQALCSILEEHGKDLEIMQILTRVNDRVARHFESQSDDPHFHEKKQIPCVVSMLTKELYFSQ
Photoreceptor-specific nuclear receptor, sequence (Q9Y5X4 whole entry, the tested form may be a part): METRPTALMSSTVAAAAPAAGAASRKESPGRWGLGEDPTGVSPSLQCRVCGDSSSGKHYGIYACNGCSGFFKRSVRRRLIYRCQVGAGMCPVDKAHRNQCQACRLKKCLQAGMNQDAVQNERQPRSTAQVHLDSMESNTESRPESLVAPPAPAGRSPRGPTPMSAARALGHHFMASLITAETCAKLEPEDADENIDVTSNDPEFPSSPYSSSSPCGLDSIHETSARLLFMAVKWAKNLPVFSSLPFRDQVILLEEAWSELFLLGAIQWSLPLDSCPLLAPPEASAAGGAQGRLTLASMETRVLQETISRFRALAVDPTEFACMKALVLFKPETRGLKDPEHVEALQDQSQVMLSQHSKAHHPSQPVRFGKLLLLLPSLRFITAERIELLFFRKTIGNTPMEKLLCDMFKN
Voltage-dependent T-type calcium channel subunit alpha-1H, sequence (O95180 whole entry): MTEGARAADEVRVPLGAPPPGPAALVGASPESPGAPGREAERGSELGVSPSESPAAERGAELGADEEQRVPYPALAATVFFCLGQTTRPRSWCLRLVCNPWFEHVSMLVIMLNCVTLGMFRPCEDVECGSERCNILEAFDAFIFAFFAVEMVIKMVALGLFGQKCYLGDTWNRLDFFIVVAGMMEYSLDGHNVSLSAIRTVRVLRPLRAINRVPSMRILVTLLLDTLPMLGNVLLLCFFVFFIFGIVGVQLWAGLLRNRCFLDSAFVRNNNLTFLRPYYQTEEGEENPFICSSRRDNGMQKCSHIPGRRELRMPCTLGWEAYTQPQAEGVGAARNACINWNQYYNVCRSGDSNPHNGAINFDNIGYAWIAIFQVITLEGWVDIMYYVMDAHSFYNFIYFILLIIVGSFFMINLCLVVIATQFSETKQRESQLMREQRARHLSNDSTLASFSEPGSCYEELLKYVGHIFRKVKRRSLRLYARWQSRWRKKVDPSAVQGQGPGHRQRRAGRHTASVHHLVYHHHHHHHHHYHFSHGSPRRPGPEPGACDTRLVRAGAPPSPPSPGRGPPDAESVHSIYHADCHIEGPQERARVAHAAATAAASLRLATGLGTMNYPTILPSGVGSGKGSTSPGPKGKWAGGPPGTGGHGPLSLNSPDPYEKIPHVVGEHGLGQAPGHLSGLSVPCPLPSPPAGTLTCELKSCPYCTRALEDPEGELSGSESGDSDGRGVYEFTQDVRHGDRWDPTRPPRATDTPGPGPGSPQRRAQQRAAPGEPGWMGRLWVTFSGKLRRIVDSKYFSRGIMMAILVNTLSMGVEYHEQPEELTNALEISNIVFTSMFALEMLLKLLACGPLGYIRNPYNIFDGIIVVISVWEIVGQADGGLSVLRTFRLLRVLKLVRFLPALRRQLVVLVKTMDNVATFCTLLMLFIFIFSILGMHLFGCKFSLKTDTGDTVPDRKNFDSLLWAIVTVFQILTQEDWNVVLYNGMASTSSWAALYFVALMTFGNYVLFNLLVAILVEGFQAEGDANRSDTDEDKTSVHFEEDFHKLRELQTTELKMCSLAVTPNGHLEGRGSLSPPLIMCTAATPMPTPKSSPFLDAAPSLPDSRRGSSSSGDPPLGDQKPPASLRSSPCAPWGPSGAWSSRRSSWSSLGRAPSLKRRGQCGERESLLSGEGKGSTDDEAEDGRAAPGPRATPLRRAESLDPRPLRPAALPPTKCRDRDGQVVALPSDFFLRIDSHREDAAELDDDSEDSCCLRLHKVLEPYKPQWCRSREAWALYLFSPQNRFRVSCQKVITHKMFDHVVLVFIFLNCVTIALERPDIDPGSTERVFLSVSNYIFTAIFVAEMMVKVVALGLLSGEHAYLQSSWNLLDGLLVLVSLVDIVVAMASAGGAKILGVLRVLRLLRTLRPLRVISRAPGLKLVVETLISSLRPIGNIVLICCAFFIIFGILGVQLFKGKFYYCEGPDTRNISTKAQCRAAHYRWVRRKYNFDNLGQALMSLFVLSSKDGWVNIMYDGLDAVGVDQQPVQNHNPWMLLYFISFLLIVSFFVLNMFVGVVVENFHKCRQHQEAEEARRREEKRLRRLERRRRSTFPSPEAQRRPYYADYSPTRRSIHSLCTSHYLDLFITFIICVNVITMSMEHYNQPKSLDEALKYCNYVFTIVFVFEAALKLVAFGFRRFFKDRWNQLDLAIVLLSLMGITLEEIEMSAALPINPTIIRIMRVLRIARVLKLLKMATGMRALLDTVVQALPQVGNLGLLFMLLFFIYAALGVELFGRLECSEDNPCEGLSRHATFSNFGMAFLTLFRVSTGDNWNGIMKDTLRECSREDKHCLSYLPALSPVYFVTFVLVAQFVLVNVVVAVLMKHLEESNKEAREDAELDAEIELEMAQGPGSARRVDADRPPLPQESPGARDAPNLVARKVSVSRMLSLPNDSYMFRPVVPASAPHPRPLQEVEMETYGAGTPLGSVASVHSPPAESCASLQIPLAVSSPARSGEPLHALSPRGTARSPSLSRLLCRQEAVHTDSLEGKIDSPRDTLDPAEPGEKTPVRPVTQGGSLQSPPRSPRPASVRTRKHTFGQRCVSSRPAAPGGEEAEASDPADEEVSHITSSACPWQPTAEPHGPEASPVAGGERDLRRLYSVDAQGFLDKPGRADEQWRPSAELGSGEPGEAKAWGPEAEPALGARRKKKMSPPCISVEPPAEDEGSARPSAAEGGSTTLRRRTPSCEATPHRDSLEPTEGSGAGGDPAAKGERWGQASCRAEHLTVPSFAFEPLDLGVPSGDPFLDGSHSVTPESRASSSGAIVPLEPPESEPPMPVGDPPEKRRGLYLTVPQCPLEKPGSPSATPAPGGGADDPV

Take `COc1ccccc1-n1c(=O)oc2ccc(Cl)cc2c1=O`: the EC50 is 11.7 µM (active) in [1] and 11.9 µM (active) in assay [2]. The CC50 is 19.8 µM (active) in [3], > 20 µM (active) in assay [4] and > 20 µM (active) in [6]. The IC50 in [5] was 26.9 µM (active); in assay [7] it was 11.5 µM (active); in assay [8], 16.5 µM (active); in assay [9], 22.6 µM (active); in assay [11], 5.1 µM (active). Also, in assay [10], the AC50 is 8.62 µM (active).

For the compound `C=CCn1/c(=N/C(=O)c2cc(-c3cccs3)nc3ccccc23)sc2cc(S(N)(=O)=O)ccc21`, the CC50 in assay [12] is 17.2 µM (active). In addition, the EC50 is 25.3 µM (active) in assay [1], 30.1 µM (active) in assay [2], 3.26 µM (active) in [13] and > 3.16 µM (active) in assay [14]. Besides, in [10], the AC50 is 19.3 µM (active). The IC50 in assay [15] is 11.5 µM (active); in assay [16] it was 21.6 µM (active).

Turning to `N#Cc1cc([N+](=O)[O-])c(-n2nnc3ccccc32)c([N+](=O)[O-])c1`, in assay [17], the IC50 was > 66.6 µM (inactive). The AC50 in assay [18] was 7.31 µM (active). In assay [19], the EC50 is 25.9 µM (active).

On to `Cc1ccc(-c2nnc(NC(=O)COc3ccc(Cl)cc3)o2)cc1C`, for which the EC50 in assay [20] is 1.4 µM (active).

In general, EC50 refers to the midpoint of the concentration-response curve. As usually defined, the CC50 is the concentration giving 50% cytotoxicity. What is called AC50 is the concentration giving half of the maximal activity seen.
